Measurements published in ChEMBL document CHEMBL3259654, “Dihydrothiophene-condensed chromones from a marine-derived fungus Penicillium oxalicum and their structure-bioactivity relationship” (Bioorg Med Chem Lett, 2014).

Columns and labels:
[1] = Retention time of the compound by HPLC analysis; type: physicochemical
[2] = Cytotoxicity against human BGC823 cells by MTT assay; type: functional, cell-based; conditions: BGC-823
[3] = test system: MOLT-4; test: Cytotoxicity against human MOLT4 cells by MTT assay; type: functional, cell-based
[4] = test system: MCF7; test: Cytotoxicity against human MCF7 cells by MTT assay; type: functional, cell-based
[5] = Cytotoxicity against human HuH7 cells by MTT assay; type: functional, cell-based; conditions: Huh-7
[6] = test system: U-937; test: Cytotoxicity against human U937 cells by MTT assay; type: functional, cell-based
[7] = test system: K562; test: Cytotoxicity against human K562 cells by MTT assay; type: functional, cell-based
[8] = test system: NCI-H1975; test: Cytotoxicity against human NCI-H1975 cells by MTT assay; type: functional, cell-based
[9] = test system: HL-60; test: Cytotoxicity against human HL60 cells by MTT assay; type: functional, cell-based

Retention_time [1]	Compound	IC50 [2]	IC50 [3]	IC50 [4]	IC50 [5]	IC50 [6]	IC50 [7]	IC50 [8]	IC50 [9]
23.144 min	COC(=O)[C@@](O)(C[C@@H](O)C(=O)O)[C@@H]1Cc2c(oc3cc(C)cc(O)c3c2=O)S1	10.1 µM	5.74 µM						
	COC(=O)C[C@](O)(C(=O)OC)[C@@H]1Cc2c(oc3cc(C)cc(O)c3c2=O)S1	1.96 µM	1.36 µM	4.32 µM	6.33 µM	4.16 µM	8.8 µM	5.45 µM	2.96 µM
24.796 min	COC(=O)[C@H](O)C[C@](O)(C(=O)OC)[C@@H]1Cc2c(oc3cc(C)cc(O)c3c2=O)S1	4.89 µM	0.3 µM	11.3 µM	9.49 µM	2.35 µM	4.53 µM	10.4 µM	2.55 µM
	COC(=O)[C@H](O)C[C@](O)(C(=O)OC)[C@H]1Cc2c(oc3cc(C)cc(O)c3c2=O)S1		2.3 µM			5 µM			6.41 µM
	COC(=O)[C@@H](C[C@](O)(C(=O)OC)[C@@H]1Cc2c(oc3cc(C)cc(O)c3c2=O)S1)OC(=O)[C@](OC)(c1ccccc1)C(F)(F)F	8.82 µM	5.89 µM			9.85 µM			
	COC(=O)[C@@H](C[C@](O)(C(=O)OC)[C@@H]1Cc2c(oc3cc(C)cc(O)c3c2=O)S1)OC(=O)[C@@](OC)(c1ccccc1)C(F)(F)F	5.53 µM	4.81 µM			9.04 µM	1.34 µM		7.54 µM
	COC(=O)[C@@H](C[C@](O)(C(=O)OC)[C@@H]1Cc2c(oc3cc(C)cc(O)c3c2=O)S1)OC(=O)c1ccc([N+](=O)[O-])cc1	8.01 µM	3.66 µM	7.37 µM	6 µM	6.37 µM	9.68 µM	6.97 µM	3.96 µM
	COC(=O)[C@@H](C[C@](O)(C(=O)OC)[C@@H]1Cc2c(oc3cc(C)cc(OC(=O)c4ccc([N+](=O)[O-])cc4)c3c2=O)S1)OC(=O)c1ccc([N+](=O)[O-])cc1	4.49 µM	2.96 µM	6.05 µM	8.77 µM	6.34 µM	1.04 µM		3.09 µM
	COC(=O)[C@@H](C[C@](O)(C(=O)OC)[C@@H]1Cc2c(oc3cc(C)cc(O)c3c2=O)S1)OC(=O)c1cc(C(F)(F)F)cc(C(F)(F)F)c1	3.95 µM	3.02 µM	6.94 µM		4.06 µM	6.9 µM	2.33 µM	3.79 µM
	COC(=O)[C@@H](C[C@](OC(=O)c1cc(C(F)(F)F)cc(C(F)(F)F)c1)(C(=O)OC)[C@@H]1Cc2c(oc3cc(C)cc(OC(=O)c4cc(C(F)(F)F)cc(C(F)(F)F)c4)c3c2=O)S1)OC(=O)c1cc(C(F)(F)F)cc(C(F)(F)F)c1					7.2 µM			
	COC(=O)[C@@H](C[C@](O)(C(=O)OC)[C@@H]1Cc2c(oc3cc(C)cc(OC(=O)c4ccccc4)c3c2=O)S1)OC(=O)c1ccccc1		3.99 µM						4.46 µM
	COC(=O)[C@@H](C[C@](O)(C(=O)OC)[C@H]1Cc2c(oc3cc(C)cc(O)c3c2=O)S1)OC(=O)[C@@](OC)(c1ccccc1)C(F)(F)F	8.81 µM	6.03 µM						9.14 µM
